# Measured values from patent US7632845B2, “Phenyl quinolines and their use as estrogenic agents” (Wyeth, priority 2003, dated 2009).
# How the values were obtained:
# [1] = biological target: T1, ERα (Homo sapiens, UniProt P03372); experiment: Competition with [3H]-17β-estradiol for ERα ligand binding domain; conditions: crude E. coli lysate expressing human ERα LBD (D, E, & F); 2 nM [3H]-17β-estradiol; 5-15 hours at room temperature
# T1 construct: made in house; host or cells: E. coli
# T1 sequence (P03372 311-547 limits assumed): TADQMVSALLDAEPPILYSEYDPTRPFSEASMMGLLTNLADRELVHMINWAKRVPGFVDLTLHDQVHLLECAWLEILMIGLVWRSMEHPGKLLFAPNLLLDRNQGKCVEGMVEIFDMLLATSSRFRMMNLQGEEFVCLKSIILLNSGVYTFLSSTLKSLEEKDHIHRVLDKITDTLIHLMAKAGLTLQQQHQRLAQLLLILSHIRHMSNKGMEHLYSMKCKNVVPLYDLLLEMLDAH
# Experimental: (§1) Representative examples of the invention were evaluated for their ability to compete with 17β-estradiol for both ERα and ERβ. This test procedure provides the methodology for one to determine whether a particular compound binds to the estrogen receptor (and is therefore “estrogenic”) and whether there is selectivity for ERα or ERβ. […] 17β-estradiol is included as a standard reference for compalison. The procedure used is briefly described below. A crude lysate of E. coli expressing the estrogen receptor ligand binding domains (D, E, & F) of human ERα or ERβ was prepared. Both receptors and compounds were diluted in 1× Dulbecco's PBS (DPBS) supplemented with 1 mM EDTA. Using a high binding masked microtiter plate, 100 uL of receptor (1 uG/well) was combined with 2 nM [^3H]-17β-estradiol and various concentrations of compound. After between 5 and 15 hours at room temperature, the plates were washed with DPBS/1 mM EDTA and bound radioactivity determined by liquid scintillation counting.
# [2] = biological target: T2, ERβ (Homo sapiens, UniProt Q92731); experiment: Competition with [3H]-17β-estradiol for ERβ ligand binding domain; conditions: for IC50: crude E. coli lysate expressing human ERβ LBD (D, E, & F), 2 nM [3H]-17β-estradiol, 5-15 hours at room temperature; for α/β: receptor selectivity, ratio ERα IC50 / ERβ IC50
# T2 construct: made in house; host or cells: E. coli
# T2 sequence (Q92731 264-498 limits assumed): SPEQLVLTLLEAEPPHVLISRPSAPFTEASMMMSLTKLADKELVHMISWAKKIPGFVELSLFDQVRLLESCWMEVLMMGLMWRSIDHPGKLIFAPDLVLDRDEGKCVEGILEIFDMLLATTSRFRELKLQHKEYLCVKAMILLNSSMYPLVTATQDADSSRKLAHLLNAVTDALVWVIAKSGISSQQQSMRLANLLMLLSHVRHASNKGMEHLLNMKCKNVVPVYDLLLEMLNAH
# Experimental: as §1
compound,measurement,setting,value
"CC(=O)c1cc(-c2ccc(O)c(F)c2)nc2ccc(O)cc12 [Cpd 16b, 4-Acetyl-2-(3-fluoro-4-hydroxyphenyl)quinolin-6-ol]",IC50,[1],3370 nM
"Oc1ccc(-c2cc(I)c3cc(O)ccc3n2)cc1 [Cpd 8a, 2-(4-Hydroxyphenyl)-4-iodoquinolin-6-ol]",IC50,[2],2.4 nM
same,α/β,[2],43
same,IC50,[1],103 nM
"N#Cc1cc(O)cc2c(Br)cc(-c3ccc(O)c(F)c3)nc12 [Cpd 57, 4-Bromo-8-cyano-2-(3-fluoro-4-hydroxyphenyl)quinolin-6-ol]",IC50,[2],1.4 nM
same,α/β,[2],61
same,IC50,[1],86 nM
"CCCCC#Cc1cc(-c2ccc(O)c(F)c2)nc2c(Cl)cc(O)cc12 [Cpd 49, 8-Chloro-2-(3-fluoro-4-hydroxyphenyl)-4-hex-1-ynylquinolin-6-ol]",IC50,[2],21 nM
same,α/β,[2],14
same,IC50,[1],304 nM
"N#Cc1ccc(-c2cc(-c3ccc(O)c(F)c3)nc3ccc(O)cc23)cc1 [Cpd 24, 4-(4-Cyanophenyl)-2-(3-fluoro-4-hydroxyphenyl)quinolin-6-ol]",IC50,[2],53 nM
same,α/β,[2],34
same,IC50,[1],1810 nM
"Oc1ccc(-c2nc3ccc(O)cc3c(Br)c2Cl)cc1 [Cpd 35a, 4-Bromo-3-chloro-2-(4-hydroxyphenyl)quinolin-6-ol]",IC50,[2],1.25 nM
same,α/β,[2],62
same,IC50,[1],78 nM
"N#Cc1ccc(-c2cc(-c3ccc(O)c(F)c3)nc3c(Cl)cc(O)cc23)cc1 [Cpd 51, 8-Chloro-4-(4-cyanophenyl)-2-(3-fluoro-4-hydroxyphenyl)quinolin-6-ol]",IC50,[2],37 nM
same,α/β,[2],56
same,IC50,[1],2070 nM
"Oc1ccc2nc(-c3ccc(O)c(F)c3)cc(Cl)c2c1 [Cpd 5b, 4-Chloro-2-(3-fluoro-4-hydroxyphenyl)quinolin-6-ol]",IC50,[1],246 nM
"Oc1ccc(-c2ccc3c(Br)c(O)ccc3n2)cc1 [Cpd 32, 5-Bromo-2-(4-hydroxyphenyl)quinolin-6-ol]",IC50,[2],90 nM
same,α/β,[2],13
same,IC50,[1],1190 nM
"Oc1ccc2nc(-c3ccc(O)c(F)c3)c(Cl)c(Br)c2c1 [Cpd 35b, 4-Bromo-3-chloro-2-(3-fluoro-4-hydroxyphenyl)quinolin-6-ol]",IC50,[2],3.7 nM
same,α/β,[2],24
same,IC50,[1],90 nM
"C=Cc1cc(-c2ccc(O)c(F)c2)nc2ccc(O)cc12 [Cpd 11b, 2-(3-Fluoro-4-hydroxyphenyl)-4-vinylquinolin-6-ol]",IC50,[2],37 nM
same,α/β,[2],12
same,IC50,[1],458 nM
"Oc1ccc2nc(-c3ccc(O)c(F)c3)cc(-c3ccccc3)c2c1 [Cpd 20, 2-(3-Fluoro-4-hydroxyphenyl)-4-phenylquinolin-6-ol]",IC50,[2],128 nM
same,α/β,[2],11
same,IC50,[1],1380 nM
"CC(=O)c1cc(-c2ccc(O)cc2)nc2ccc(O)cc12 [Cpd 16a, 4-Acetyl-2-(4-hydroxyphenyl)quinolin-6-ol]",IC50,[2],211 nM
same,α/β,[2],14
same,IC50,[1],2940 nM
"Oc1ccc(-c2ccc3c(Cl)c(O)ccc3n2)cc1 [Cpd 31, 5-Chloro-2-(4-hydroxyphenyl)quinolin-6-ol]",IC50,[2],38 nM
same,α/β,[2],22
same,IC50,[1],840 nM
"Oc1ccc2nc(-c3ccc(O)c(F)c3)cc(-c3ccc(Cl)cc3)c2c1 [Cpd 23, 4-(4-Chlorophenyl)-2-(3-fluoro-4-hydroxyphenyl)quinolin-6-ol]",IC50,[2],146 nM
same,α/β,[2],>6
same,IC50,[1],> 1000 nM
"Oc1ccc2nc(-c3ccc(O)c(F)c3)cc(C#Cc3ccccc3)c2c1 [Cpd 15, 2-(3-Fluoro-4-hydroxyphenyl)-4-(phenylethynyl)quinolin-6-ol]",IC50,[2],195 nM
same,α/β,[2],62
same,IC50,[1],12000 nM
"Oc1ccc2nc(-c3ccc(O)c(F)c3)cc(-c3ccncc3)c2c1 [Cpd 27, 2-(3-Fluoro-4-hydroxyphenyl)-4-(4-pyridinyl)quinolin-6-ol]",IC50,[2],78 nM
same,α/β,[2],>12
same,IC50,[1],> 1000 nM
"Oc1ccc(-c2nc3ccc(O)cc3c(-c3ccc(F)cc3)c2Cl)cc1 [Cpd 36, 3-Chloro-4-(4-fluorophenyl)-2-(4-hydroxyphenyl)quinolin-6-ol]",IC50,[2],244 nM
same,α/β,[2],1.4
same,IC50,[1],340 nM
"Oc1ccc2nc(-c3cc(F)c(O)c(F)c3)cc(Br)c2c1 [Cpd 6c, 4-Bromo-2-(3,5-difluoro-4-hydroxyphenyl)quinolin-6-ol]",IC50,[2],42 nM
same,α/β,[2],23
same,IC50,[1],976 nM
"N#Cc1ccc(-c2cc(O)cc3c(Cl)cc(-c4ccc(O)c(F)c4)nc23)cc1 [Cpd 61, 4-Chloro-8-(4-cyanophenyl)-2-(3-fluoro-4-hydroxyphenyl)quinolin-6-ol]",IC50,[2],13 nM
same,α/β,[2],40
same,IC50,[1],522 nM
"Oc1cc(Br)c2nc(-c3ccc(O)c(F)c3)cc(Cl)c2c1 [Cpd 44, 8-Bromo-4-chloro-2-(3-fluoro-4-hydroxyphenyl)-quinolin-6-ol]",IC50,[2],0.54 nM
same,α/β,[2],57
same,IC50,[1],31 nM
"Oc1ccc2nc(-c3ccc(O)c(F)c3)cc(-c3ccc(C(F)(F)F)cc3)c2c1 [Cpd 25, 2-(3-Fluoro-4-hydroxyphenyl)-4-(4-trifluoromethylphenyl)quinolin-6-ol]",IC50,[2],> 5000 nM
same,IC50,[1],> 5000 nM
"CCc1cc(-c2ccc(O)c(F)c2)nc2ccc(O)cc12 [Cpd 12b, 4-Ethyl-2-(3-fluoro-4-hydroxyphenyl)quinolin-6-ol]",IC50,[2],40 nM
same,α/β,[2],26
same,IC50,[1],1030 nM
"CC(=O)Oc1ccc2nc(-c3ccc(OC(C)=O)c(F)c3)cc(Br)c2c1 [Cpd 7, 6-Acetoxy-4-bromo-2-(3-fluoro-4-acetoxyphenyl)quinoline]",IC50,[2],198 nM
same,α/β,[2],>25
same,IC50,[1],> 5000 nM
"C#Cc1cc(-c2ccc(O)cc2)nc2ccc(O)cc12 [Cpd 14a, 4-Ethynyl-2-(4-hydroxyphenyl)quinolin-6-ol]",IC50,[2],76 nM
same,α/β,[2],20
same,IC50,[1],1500 nM
"Oc1cc(Cl)c2nc(-c3ccc(O)c(F)c3)cc(Br)c2c1 [Cpd 45a, 4-Bromo-8-chloro-2-(3-fluoro-4-hydroxyphenyl)quinolin-6-ol]",IC50,[2],0.35 nM
same,α/β,[2],53
same,IC50,[1],18.7 nM
"C#Cc1cc(-c2ccc(O)c(F)c2)nc2c(Cl)cc(O)cc12 [Cpd 48, 8-Chloro-4-ethynyl-2-(3-fluoro-4-hydroxyphenyl)quinolin-6-ol]",IC50,[2],0.75 nM
same,α/β,[2],50
same,IC50,[1],37 nM
"C[Si](C)(C)C#Cc1cc(-c2ccc(O)cc2)nc2ccc(O)cc12 [Cpd 13a, 2-(4-Hydroxyphenyl)-4-[(trimethylsilyl)ethynyl]quinolin-6-ol]",IC50,[2],161 nM
same,α/β,[2],9
same,IC50,[1],1510 nM
"Oc1ccc(-c2cc(Cl)c3cc(O)ccc3n2)cc1 [Cpd 5a, 4-Chloro-2-(4-hydroxyphenyl)quinolin-6-ol]",IC50,[2],4.6 nM
same,α/β,[2],46
same,IC50,[1],213 nM
"C[Si](C)(C)C#Cc1cc(-c2ccc(O)c(F)c2)nc2ccc(O)cc12 [Cpd 13b, 2-(3-Fluoro-4-hydroxyphenyl)-4-[(trimethylsilyl)ethynyl]quinolin-6-ol]",IC50,[2],153 nM
same,α/β,[2],11
same,IC50,[1],1690 nM
"COc1ccc(-c2cc(-c3ccc(O)c(F)c3)nc3c(Cl)cc(O)cc23)cc1 [Cpd 52, 8-Chloro-2-(3-fluoro-4-hydroxyphenyl)-4-(4-methoxyphenyl)quinolin-6-ol]",IC50,[2],13 nM
same,α/β,[2],15
same,IC50,[1],195 nM
"Oc1ccc2nc(-c3ccc(O)c(F)c3)cc(-c3ccc(F)cc3)c2c1 [Cpd 22, 2-(3-Fluoro-4-hydroxyphenyl)-4-(4-fluorophenyl)quinolin-6-ol]",IC50,[2],33 nM
same,α/β,[2],18
same,IC50,[1],591 nM
"C#Cc1cc(-c2ccc(O)c(F)c2)nc2ccc(O)cc12 [Cpd 14b, 4-Ethynyl-2-(3-fluoro-4-hydroxyphenyl)quinolin-6-ol]",IC50,[2],32 nM
same,α/β,[2],106
same,IC50,[1],3410 nM
"N#Cc1cc(-c2ccc(O)c(F)c2)nc2c(Cl)cc(O)cc12 [Cpd 47, 8-Chloro-4-cyano-2-(3-fluoro-4-hydroxyphenyl)quinolin-6-ol]",IC50,[2],1.7 nM
same,α/β,[2],113
same,IC50,[1],192 nM
"Oc1cc(Br)c2nc(-c3ccc(O)c(F)c3)cc(Br)c2c1 [Cpd 45b, 4,8-Dibromo-2-(3-fluoro-4-hydroxyphenyl)quinolin-6-ol]",IC50,[2],1.7 nM
same,α/β,[2],7
same,IC50,[1],11.6 nM
"C#Cc1cc(-c2ccc(O)c(F)c2)nc2c(C#N)cc(O)cc12 [Cpd 58, 8-Cyano-4-ethynyl-2-(3-fluoro-4-hydroxyphenyl)quinolin-6-ol]",IC50,[2],1.3 nM
same,α/β,[2],67
same,IC50,[1],87 nM
"Oc1ccc2nc(-c3ccc(O)c(F)c3)cc(-c3nccs3)c2c1 [Cpd 18, 2-(3-Fluoro-4-hydroxyphenyl)-4-thiazol-2-yl-quinolin-6-ol]",IC50,[2],208 nM
same,α/β,[2],10
same,IC50,[1],2160 nM
"C=Cc1cc(-c2ccc(O)c(F)c2)nc2c(Cl)cc(O)cc12 [Cpd 50, 8-Chloro-2-(3-fluoro-4-hydroxyphenyl)-4-vinylquinolin-6-ol]",IC50,[2],0.95 nM
same,α/β,[2],79
same,IC50,[1],75 nM
